Measured values taken from PubChem BioAssay AID1919013 (Molecular Pharmacology Branch, DTP, NCI, 2023).
Values joined by “and” are separate entries in the source; they are usually repeats but may differ in a detail not shown here. Equal entries are not always repeated. Each block holds one molecule with its values, some of them ahead of it.

Tested on: LG0703-F498-PDC complex spheroid growth
Assay: Anticancer human tumor LG0703-F498-PDC patient-derived lung adenocarcinoma cell line growth inhibition [AhR]
Details: for viability, T/C: stronger effect = lower value
Procedure, shortened: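 Complex tumor spheroids co-cultured with HUVEC and human MSC stroma; AhR antagonists tested in combination with standard-of-care and investigational agents. Top concentration at or near clinical Cmax (else 10 microM), half-log dilutions; growth expressed as percent test/control.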

[1] = curve of first compound, second compound 0.1 µM
[2] = curve of first compound, second compound 0.316 µM
[3] = curve of first compound, second compound 1 µM
[4] = curve of first compound, second compound 3.16 µM
[5] = curve of first compound, second compound 10 µM
[6] = second compound 0.1 µM, first compound 0.0316 µM
[7] = second compound 0.1 µM, first compound 0.1 µM
[8] = second compound 0.1 µM, first compound 0.316 µM
[9] = second compound 0.1 µM, first compound 1 µM
[10] = second compound 0.1 µM, first compound 3.16 µM
[11] = second compound 0.1 µM, first compound 10 µM
[12] = second compound 0.316 µM, first compound 0.0316 µM
[13] = second compound 0.316 µM, first compound 0.1 µM
[14] = second compound 0.316 µM, first compound 0.316 µM
[15] = second compound 0.316 µM, first compound 1 µM
[16] = second compound 0.316 µM, first compound 3.16 µM
[17] = second compound 0.316 µM, first compound 10 µM
[18] = second compound 1 µM, first compound 0.0316 µM
[19] = second compound 1 µM, first compound 0.1 µM
[20] = second compound 1 µM, first compound 0.316 µM
[21] = second compound 1 µM, first compound 1 µM
[22] = second compound 1 µM, first compound 3.16 µM
[23] = second compound 1 µM, first compound 10 µM
[24] = second compound 3.16 µM, first compound 0.0316 µM
[25] = second compound 3.16 µM, first compound 0.1 µM
[26] = second compound 3.16 µM, first compound 0.316 µM
[27] = second compound 3.16 µM, first compound 1 µM
[28] = second compound 3.16 µM, first compound 3.16 µM
[29] = second compound 3.16 µM, first compound 10 µM
[30] = second compound 10 µM, first compound 0.0316 µM
[31] = second compound 10 µM, first compound 0.1 µM
[32] = second compound 10 µM, first compound 0.316 µM
[33] = second compound 10 µM, first compound 1 µM
[34] = second compound 10 µM, first compound 3.16 µM
[35] = second compound 10 µM, first compound 10 µM
[36] = second compound 0.1 µM, first compound 0.000949 µM
[37] = second compound 0.1 µM, first compound 0.003 µM
[38] = second compound 0.1 µM, first compound 0.00949 µM
[39] = second compound 0.1 µM, first compound 0.03 µM
[40] = second compound 0.1 µM, first compound 0.0949 µM
[41] = second compound 0.1 µM, first compound 0.3 µM
[42] = second compound 0.316 µM, first compound 0.000949 µM
[43] = second compound 0.316 µM, first compound 0.003 µM
[44] = second compound 0.316 µM, first compound 0.00949 µM
[45] = second compound 0.316 µM, first compound 0.03 µM
[46] = second compound 0.316 µM, first compound 0.0949 µM
[47] = second compound 0.316 µM, first compound 0.3 µM
[48] = second compound 1 µM, first compound 0.000949 µM
[49] = second compound 1 µM, first compound 0.003 µM
[50] = second compound 1 µM, first compound 0.00949 µM
[51] = second compound 1 µM, first compound 0.03 µM
[52] = second compound 1 µM, first compound 0.0949 µM
[53] = second compound 1 µM, first compound 0.3 µM
[54] = second compound 3.16 µM, first compound 0.000949 µM
[55] = second compound 3.16 µM, first compound 0.003 µM
[56] = second compound 3.16 µM, first compound 0.00949 µM
[57] = second compound 3.16 µM, first compound 0.03 µM
[58] = second compound 3.16 µM, first compound 0.0949 µM
[59] = second compound 3.16 µM, first compound 0.3 µM
[60] = second compound 10 µM, first compound 0.000949 µM
[61] = second compound 10 µM, first compound 0.003 µM
[62] = second compound 10 µM, first compound 0.00949 µM
[63] = second compound 10 µM, first compound 0.03 µM
[64] = second compound 10 µM, first compound 0.0949 µM
[65] = second compound 10 µM, first compound 0.3 µM
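Note: luminescence taken as a proxy for viable cell amount.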
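Throughout, for viability, T/C: percent of DMSO vehicle control where 100% means growth equal to vehicle.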

IC50 [1]: > 300 nM
IC50 [2]: > 300 nM
IC50 [3]: > 300 nM
IC50 [4]: > 300 nM
IC50 [5]: > 300 nM
Structure (SMILES): Nc1ncn(C2CC(O)C(CO)S2)c(=O)n1 (centres undefined) + CC(CO)NC(=O)c1cc(-c2ccc(Cl)cc2)nn(-c2cnn(C)c2)c1=O
viability, T/C [36]: 89.3%
viability, T/C [37]: 96.6%
viability, T/C [38]: 95.6%
viability, T/C [39]: 102%
viability, T/C [40]: 92.8%
viability, T/C [41]: 91.8%
viability, T/C [42]: 108%
viability, T/C [43]: 93.9%
viability, T/C [44]: 96.2%
viability, T/C [45]: 103%
viability, T/C [46]: 97.1%
viability, T/C [47]: 97.8%
viability, T/C [48]: 82.4%
viability, T/C [49]: 92%
viability, T/C [50]: 90.2%
viability, T/C [51]: 76.9%
viability, T/C [52]: 84.8%
viability, T/C [53]: 97.7%
viability, T/C [54]: 80.5%
viability, T/C [55]: 90.9%
viability, T/C [56]: 78.3%
viability, T/C [57]: 94.8%
viability, T/C [58]: 96.1%
viability, T/C [59]: 89.5%
viability, T/C [60]: 86.9%
viability, T/C [61]: 86.7%
viability, T/C [62]: 84.9%
viability, T/C [63]: 86.7%
viability, T/C [64]: 81.9%
viability, T/C [65]: 92.2%

IC50 [1]: > 1000 nM
IC50 [2]: > 1000 nM
IC50 [3]: > 1000 nM
IC50 [4]: > 1000 nM
IC50 [5]: < 3.16 nM
Structure (SMILES): Nc1ncn(C2CC(O)C(CO)O2)c(=O)n1 (centres undefined) + Cc1cncc(-c2nc(NCCc3c[nH]c4ccccc34)c3ncn(C(C)C)c3n2)c1
viability, T/C (second compound 0.1 µM, first compound 0.00316 µM): 85.7%
viability, T/C (second compound 0.1 µM, first compound 0.01 µM): 98%
viability, T/C [6]: 94.8%
viability, T/C [7]: 84.4%
viability, T/C [8]: 79.9%
viability, T/C [9]: 86.4%
viability, T/C (second compound 0.316 µM, first compound 0.00316 µM): 109%
viability, T/C (second compound 0.316 µM, first compound 0.01 µM): 102%
viability, T/C [12]: 88%
viability, T/C [13]: 86.8%
viability, T/C [14]: 81.9%
viability, T/C [15]: 79.9%
viability, T/C (second compound 1 µM, first compound 0.00316 µM): 106%
viability, T/C (second compound 1 µM, first compound 0.01 µM): 116%
viability, T/C [18]: 98.7%
viability, T/C [19]: 89.3%
viability, T/C [20]: 89.3%
viability, T/C [21]: 87.2%
viability, T/C (second compound 3.16 µM, first compound 0.00316 µM): 56%
viability, T/C (second compound 3.16 µM, first compound 0.01 µM): 59.8%
viability, T/C [24]: 58.5%
viability, T/C [25]: 64.3%
viability, T/C [26]: 55.1%
viability, T/C [27]: 60%
viability, T/C (second compound 10 µM, first compound 0.00316 µM): 1.37%
viability, T/C (second compound 10 µM, first compound 0.01 µM): 1.38%
viability, T/C [30]: 1.23%
viability, T/C [31]: 1.12%
viability, T/C [32]: 1.02%
viability, T/C [33]: 1.63%

Continued, molecule first:

Structure (SMILES): CC1COCCN1c1cc(C2(S(C)(=N)=O)CC2)nc(-c2ccnc3[nH]ccc23)n1 (centres undefined) + Cc1cncc(-c2nc(NCCc3c[nH]c4ccccc34)c3ncn(C(C)C)c3n2)c1
IC50 [1]: > 10000 nM
IC50 [2]: > 10000 nM
IC50 [3]: 9330 nM
IC50 [4]: < 31.6 nM
IC50 [5]: < 31.6 nM
viability, T/C [6]: 107%
viability, T/C [7]: 104%
viability, T/C [8]: 92.5%
viability, T/C [9]: 96.4%
viability, T/C [10]: 97.2%
viability, T/C [11]: 59.2%
viability, T/C [12]: 92.4%
viability, T/C [13]: 110%
viability, T/C [14]: 105%
viability, T/C [15]: 110%
viability, T/C [16]: 89.7%
viability, T/C [17]: 54.5%
viability, T/C [18]: 107%
viability, T/C [19]: 91.2%
viability, T/C [20]: 101%
viability, T/C [21]: 94.8%
viability, T/C [22]: 89.9%
viability, T/C [23]: 46.9%
viability, T/C [24]: 18%
viability, T/C [25]: 18.5%
viability, T/C [26]: 25%
viability, T/C [27]: 17.1%
viability, T/C [28]: 13.5%
viability, T/C [29]: 8.17%
viability, T/C [30]: 1.76%
viability, T/C [31]: 1.78%
viability, T/C [32]: 1.04%
viability, T/C [33]: 1.58%
viability, T/C [34]: 0.93%
viability, T/C [35]: 1.14%

Structure (SMILES): COc1cccc2c1C(=O)c1c(O)c3c(c(O)c1C2=O)CC(O)(C(=O)CO)CC3OC1CC(N)C(O)C(C)O1 (centres undefined) + CC(CO)NC(=O)c1cc(-c2ccc(Cl)cc2)nn(-c2cnn(C)c2)c1=O
IC50 [1]: 770 nM
IC50 [2]: 523 nM
IC50 [3]: 547 nM
IC50 [4]: 459 nM
IC50 [5]: 360 nM
viability, T/C [6]: 82.7%
viability, T/C [7]: 80.6%
viability, T/C [8]: 72.2%
viability, T/C [9]: 43%
viability, T/C [10]: 14.2%
viability, T/C [11]: 1.2%
viability, T/C [12]: 84.3%
viability, T/C [13]: 84.2%
viability, T/C [14]: 58.4%
viability, T/C [15]: 36%
viability, T/C [16]: 12.7%
viability, T/C [17]: 0.83%
viability, T/C [18]: 86.7%
viability, T/C [19]: 89.6%
viability, T/C [20]: 61.6%
viability, T/C [21]: 34.7%
viability, T/C [22]: 10%
viability, T/C [23]: 0.76%
viability, T/C [24]: 82.7%
viability, T/C [25]: 84.8%
viability, T/C [26]: 59.3%
viability, T/C [27]: 27.4%
viability, T/C [28]: 4.74%
viability, T/C [29]: 1.92%
viability, T/C [30]: 71.3%
viability, T/C [31]: 73.8%
viability, T/C [32]: 54.1%
viability, T/C [33]: 13.9%
viability, T/C [34]: 0.65%
viability, T/C [35]: 0.96%

Structure (SMILES): COc1cc(C2c3cc4c(cc3C(OC3OC5COC(C)OC5C(O)C3O)C3COC(=O)C23)OCO4)cc(OC)c1O (centres undefined)
viability, T/C (compound 0.0316 µM): 95.8% and 105% and 103%
viability, T/C (compound 0.1 µM): 109% and 113% and 98.3%
viability, T/C (compound 0.316 µM): 99.8% and 102% and 96.6%
viability, T/C (compound 1 µM): 86.4% and 106% and 110%
viability, T/C (compound 3.16 µM): 80.5% and 96.5% and 87.8%
viability, T/C (compound 10 µM): 64.3% and 75.6% and 70.2%
IC50 (curve of compound): > 10000 nM

Structure (SMILES): CC(C)CC(NC(=O)C(Cc1ccccc1)NC(=O)c1cnccn1)B(O)O (centres undefined) + Cc1cncc(-c2nc(NCCc3c[nH]c4ccccc34)c3ncn(C(C)C)c3n2)c1
IC50 [1]: 4.06 nM
IC50 [2]: 4.36 nM
IC50 [3]: 3.62 nM
IC50 [4]: 1.12 nM
IC50 [5]: < 0.949 nM
viability, T/C [36]: 90.8%
viability, T/C [37]: 65.4%
viability, T/C [38]: 6.78%
viability, T/C [39]: 0.57%
viability, T/C [40]: 0.07%
viability, T/C [41]: 0.18%
viability, T/C [42]: 101%
viability, T/C [43]: 71.3%
viability, T/C [44]: 5.68%
viability, T/C [45]: 0.52%
viability, T/C [46]: 0.13%
viability, T/C [47]: 0.41%
viability, T/C [48]: 115%
viability, T/C [49]: 58.9%
viability, T/C [50]: 4.01%
viability, T/C [51]: 0.74%
viability, T/C [52]: 0.04%
viability, T/C [53]: 0.35%
viability, T/C [54]: 52.8%
viability, T/C [55]: 33.7%
viability, T/C [56]: 1.21%
viability, T/C [57]: 0.06%
viability, T/C [58]: 0.5%
viability, T/C [59]: 0.67%
viability, T/C [60]: 1.32%
viability, T/C [61]: 0.98%
viability, T/C [62]: 0.8%
viability, T/C [63]: 0.13%
viability, T/C [64]: 1.1%
viability, T/C [65]: 1.18%

Structure (SMILES): CC1COCCN1c1cc(C2(S(C)(=N)=O)CC2)nc(-c2ccnc3[nH]ccc23)n1 (centres undefined)
viability, T/C (compound 0.0316 µM): 91% and 100% and 107%
viability, T/C (compound 0.1 µM): 108% and 96.2% and 104%
viability, T/C (compound 0.316 µM): 87.9% and 110% and 96.5%
viability, T/C (compound 1 µM): 97.9% and 98.4% and 97.6%
viability, T/C (compound 3.16 µM): 87.5% and 110% and 95.1%
viability, T/C (compound 10 µM): 65.4% and 71% and 64.8%
IC50 (curve of compound): > 10000 nM
